The values below come from ChEMBL document CHEMBL1129634, “Antimicrobial alpha, alpha-dialkylated amino acid rich peptides with in-vivo activity against an intracellular pathogen” (1996).

Holding throughout (assay type): functional
The subject of one experiment is Staphylococcus aureus. The experiment can be described thus: In vitro antibacterial activity of the peptide was tested against Staphylococcus aureus.
The next experiment deals with Escherichia coli. The experiment can be described thus: In vitro antibacterial activity of the peptide was tested against Escherichia coli.
The nature of experiment [1]: % helicity of the compound.
The test system of experiment [2] is Mus musculus. The experiment can be described thus: In vivo antimicrobial activity of 500 microg peptide against Brucella abortus in chronically infected BALB/c mice.
Experiment [3] deals with Mus musculus. As to the kind of experiment: In vivo antimicrobial activity of 1 mg peptide against Brucella abortus in chronically infected BALB/c mice.

≈ marks a conversion by molar mass, not a printed value. Where a SMILES comes first, the peptide text is derived from it. [ ]: non-standard residue; d: D form. Ac6c = NC1(C(=O)O)CCCCC1; Api = NC1(C(=O)O)CCNCC1; Aib = CC(C)(N)C(=O)O

By MIC is commonly meant the least concentration at which growth counts as inhibited. Low values mean a more susceptible organism, high ones a less susceptible organism. Regarding `NCCCC[C@H](NC(=O)[C@H](CCCCN)NC(=O)C1(NC(=O)C2(NC(=O)[C@H](CCCCN)NC(=O)C3(NC(=O)C4(NC(=O)[C@H](CCCCN)NC(=O)[C@H](CCCCN)NC(=O)C5(NC(=O)C6(NC(=O)[C@@H](N)CCCCN)CCCCC6)CCCCC5)CCCCC4)CCCCC3)CCCCC2)CCCCC1)C(=O)NC1(C(N)=O)CCCCC1` (H-K[Ac6c][Ac6c]KK[Ac6c][Ac6c]K[Ac6c][Ac6c]KK[Ac6c]-NH2), the MIC was 2.2 µM (≈ 3.66 µg/mL) in the experiment with Staphylococcus aureus and 4.5 µM (≈ 7.48 µg/mL) against Escherichia coli.
In the case of `NCCCC[C@H](NC(=O)[C@@H](CCCCN)NC(=O)C1(NC(=O)C2(NC(=O)[C@H](CCCCN)NC(=O)C3(NC(=O)C4(NC(=O)[C@@H](CCCCN)NC(=O)[C@H](CCCCN)NC(=O)C5(N)CCCCC5)CCCCC4)CCCCC3)CCCCC2)CCCCC1)C(=O)O`, the Helicity in experiment [1] came to 43%.
On to `CC(C)(N)C(=O)NC(C)(C)C(=O)NC1(C(=O)N[C@@H](CCCCN)C(=O)NC(C)(C)C(=O)NC(C)(C)C(=O)NC2(C(=O)N[C@@H](CCCCN)C(=O)NC(C)(C)C(=O)NC(C)(C)C(N)=O)CCNCC2)CCNCC1` (H-[Aib][Aib][Api]K[Aib][Aib][Api]K[Aib][Aib]-NH2), for which, in the experiment on Mus musculus [2], the Reduction stood at 90%. The MIC came to 123 µM (≈ 127 µg/mL) against Staphylococcus aureus and 7.7 µM (≈ 7.98 µg/mL) against Escherichia coli.
As for `CC(C)(NC(=O)C(C)(C)NC(=O)[C@H](CCCCN)NC(=O)[C@H](CCCCN)NC(=O)C(C)(C)NC(=O)C(C)(C)NC(=O)[C@H](CCCCN)NC(=O)C(C)(C)NC(=O)C(C)(C)NC(=O)[C@H](CCCCN)NC(=O)[C@@H](N)CCCCN)C(N)=O` (H-KK[Aib][Aib]K[Aib][Aib]KK[Aib][Aib]-NH2), in the experiment with Mus musculus [2], the Reduction is less than 63%. Besides, the MIC against Staphylococcus aureus is more than 220 µM; against Escherichia coli, 55 µM (≈ 64.3 µg/mL).
Taken in the same sequence, the figures for `CC(C)(NC(=O)C(C)(C)NC(=O)[C@H](CCCCN)NC(=O)[C@H](CCCCN)NC(=O)C(C)(C)NC(=O)C(C)(C)NC(=O)[C@H](CCCCN)NC(=O)C(C)(C)NC(=O)C(C)(C)NC(=O)[C@H](CCCCN)NC(=O)[C@H](CCCCN)NC(=O)C(C)(C)NC(=O)C(C)(C)NC(=O)[C@@H](N)CCCCN)C(N)=O` (H-K[Aib][Aib]KK[Aib][Aib]K[Aib][Aib]KK[Aib][Aib]-NH2) were less than 73%, 11 µM (≈ 16.1 µg/mL) and 5.5 µM (≈ 8.07 µg/mL).
For `CC(C)(N)C(=O)NC(C)(C)C(=O)N[C@@H](CCCCN)C(=O)N[C@H](CCCCN)C(=O)NC(C)(C)C(=O)NC(C)(C)C(=O)N[C@@H](CCCCN)C(=O)NC(C)(C)C(=O)NC(C)(C)C(=O)N[C@H](CCCCN)C(=O)N[C@@H](CCCCN)C(=O)O`, the Helicity in experiment [1] was 35%.
Still for that read-out and setting: in the case of `CC(C)(N)C(=O)NC(C)(C)C(=O)N[C@@H](CCCCN)C(=O)N[C@H](CCCCN)C(=O)NC(C)(C)C(=O)NC(C)(C)C(=O)N[C@@H](CCCCN)C(=O)NC(C)(C)C(=O)NC(C)(C)C(=O)N[C@H](CCCCN)C(=O)N[C@@H](CCCCN)C(=O)NC(C)(C)C(=O)NC(C)(C)C(=O)N[C@H](CCCCN)C(=O)O` it was 42%.
On the same count and under the same terms, the same measure for `CC(C)(N)C(=O)NC(C)(C)C(=O)N[C@H](CCCCN)C(=O)NC1(C(=O)NC(C)(C)C(=O)NC(C)(C)C(=O)N[C@H](CCCCN)C(=O)NC2(C(=O)NC(C)(C)C(=O)NC(C)(C)C(=O)O)CCNCC2)CCNCC1`: 43%.
In the case of H-KAAKKAAKAAKKAA-NH2, the MIC with Staphylococcus aureus and against Escherichia coli was more than 178 µM in each case. The compound further showed a Reduction in the experiment on Mus musculus [3] of 6%.
In the case of `NCCCC[C@H](NC(=O)[C@H](CCCCN)NC(=O)C1(NC(=O)C2(NC(=O)[C@H](CCCCN)NC(=O)C3(NC(=O)C4(NC(=O)[C@H](CCCCN)NC(=O)[C@@H](N)CCCCN)CCCCC4)CCCCC3)CCCCC2)CCCCC1)C(=O)NC1(C(N)=O)CCCCC1` (H-KK[Ac6c][Ac6c]K[Ac6c][Ac6c]KK[Ac6c]-NH2), the MIC against Staphylococcus aureus turned out to be 2.8 µM (≈ 3.59 µg/mL); in the experiment with Escherichia coli, 5.7 µM (≈ 7.32 µg/mL).
With `NCCCC[C@H](NC(=O)[C@H](CCCCN)NC(=O)C1(NC(=O)C2(NC(=O)[C@H](CCCCN)NC(=O)C3(NC(=O)C4(NC(=O)[C@H](CCCCN)NC(=O)[C@@H](N)CCCCN)CCCCC4)CCCCC3)CCCCC2)CCCCC1)C(=O)NC1(C(=O)NC2(C(N)=O)CCCCC2)CCCCC1` (H-KK[Ac6c][Ac6c]K[Ac6c][Ac6c]KK[Ac6c][Ac6c]-NH2), the values for the MIC in the experiment on Staphylococcus aureus and in the experiment with Escherichia coli were 2.6 µM (≈ 3.66 µg/mL) and 5.2 µM (≈ 7.33 µg/mL), respectively.
`CC(=O)N[C@@H](CCCCN)C(=O)N[C@@H](CCCCN)C(=O)NC(C)(C)C(=O)NC(C)(C)C(=O)N[C@@H](CCCCN)C(=O)NC(C)(C)C(=O)NC(C)(C)C(=O)N[C@@H](CCCCN)C(=O)N[C@@H](CCCCN)C(=O)NC(C)(C)C(=O)NC(C)(C)C(N)=O` (Ac-KK[Aib][Aib]K[Aib][Aib]KK[Aib][Aib]-NH2) came in with a Reduction with Mus musculus [2] of 30%. Moreover, the MIC against Staphylococcus aureus worked out at 212 µM (≈ 257 µg/mL); against Escherichia coli, 6.6 µM (≈ 7.99 µg/mL).
